From ChEMBL document CHEMBL1151026, “Synthesis and pharmacological evaluation of the enantiomers of the dopamine autoreceptor agonist PD 135385” (Bioorg Med Chem Lett, 1993)

How the values were obtained:
[1] = tested on: Mus musculus; assay: Tested for locomotor activity (LMA) in mouse by intraperitoneal administration; type: functional; conditions: ip
[2] = tested on: Rattus norvegicus; assay: Tested for locomotor activity (LMA) in rat by peroral administration; type: functional; conditions: po
[3] = molecular target: T1, D(2) dopamine receptor (Rattus norvegicus, UniProt P61169); assay: Displacement of [3H]spiperone from rat striatal Dopamine receptor D2
T1 sequence (P61169 whole entry): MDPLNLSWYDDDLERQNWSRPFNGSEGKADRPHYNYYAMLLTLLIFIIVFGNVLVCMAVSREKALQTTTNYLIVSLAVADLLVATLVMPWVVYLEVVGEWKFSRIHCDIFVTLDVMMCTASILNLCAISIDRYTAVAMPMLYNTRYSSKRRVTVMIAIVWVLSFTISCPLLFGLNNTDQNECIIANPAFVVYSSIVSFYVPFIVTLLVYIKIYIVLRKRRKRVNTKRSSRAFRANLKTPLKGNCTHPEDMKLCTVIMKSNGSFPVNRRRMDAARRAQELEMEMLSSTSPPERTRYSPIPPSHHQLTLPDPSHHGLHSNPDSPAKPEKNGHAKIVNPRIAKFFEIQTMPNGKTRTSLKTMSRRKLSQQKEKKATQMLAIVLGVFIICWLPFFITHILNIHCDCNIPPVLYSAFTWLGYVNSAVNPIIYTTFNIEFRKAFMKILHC

[4] = tested on: Rattus norvegicus; assay: Percent reversal of the increase inDOPA levels in the striatum of GBL-treated rats at 10 mg/kg administered intraperitoneally; type: functional; conditions: route intraperitoneal; for Reversal % at 10 mg/kg: ip
[5] = tested on: Rattus norvegicus; assay: Tested for locomotor activity (LMA) in rat by peroral administration for the dose for the dose of >10 mg/kg; type: functional; conditions: po
[6] = tested on: Mus musculus; assay: Tested for locomotor activity (LMA) in mouse by intraperitoneal administration for the dose >30 mg/kg; type: functional; conditions: ip
[7] = molecular target: T1, D(2) dopamine receptor; assay: In vitro agonist binding affinity was determined by displacing the [3H]N-propylnorapomorphine ([3H]NPA) in rat striatal Dopamine receptor D2
[8] = tested on: Rattus norvegicus; assay: Tested for inhibition of Dopamine neuronal firing in rat at the dose of 2.5 mg/Kg by intraperitoneal administration; type: functional; conditions: ip
[9] = tested on: Rattus norvegicus; assay: Tested for % rats with stereotypy at the dose of 116 mg/Kg administered perorally; type: functional
[10] = molecular target: D(1A) dopamine receptor (Rattus norvegicus, UniProt P18901); assay: In vitro antagonist binding affinity was determined by displacing the [3H]-SCH- in rat striatal Dopamine receptor D1
Sequence of D(1A) dopamine receptor (P18901 whole entry): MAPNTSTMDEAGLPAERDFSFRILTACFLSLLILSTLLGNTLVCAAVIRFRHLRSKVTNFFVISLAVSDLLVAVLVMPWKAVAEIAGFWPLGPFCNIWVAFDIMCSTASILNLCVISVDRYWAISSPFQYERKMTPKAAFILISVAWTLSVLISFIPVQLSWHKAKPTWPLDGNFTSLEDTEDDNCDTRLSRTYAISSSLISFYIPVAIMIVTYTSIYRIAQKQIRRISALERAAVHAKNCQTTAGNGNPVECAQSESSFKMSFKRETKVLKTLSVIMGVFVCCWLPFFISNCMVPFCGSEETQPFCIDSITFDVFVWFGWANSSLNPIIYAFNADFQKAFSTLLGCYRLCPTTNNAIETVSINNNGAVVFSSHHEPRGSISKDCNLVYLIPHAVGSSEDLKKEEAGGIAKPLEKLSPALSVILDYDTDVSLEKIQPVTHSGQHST

[11] = tested on: Rattus norvegicus; assay: Tested for locomotor activity in rat by peroral administration; type: functional; conditions: po
[12] = tested on: Rattus norvegicus; assay: Tested for % rats with stereotypy at the dose of 61 mg/Kg administered perorally; type: functional
[13] = tested on: Rattus norvegicus; assay: Tested for locomotor activity in Rat by peroral administration; type: functional; conditions: po
[14] = tested on: Rattus norvegicus; assay: Tested for inhibition of dopamine neuronal firing in rat at the dose of 2.5 mg/Kg by intraperitoneal administration; type: functional; conditions: ip
[15] = tested on: Rattus norvegicus; assay: Tested for % rats with stereotypy at the dose of 67 mg/Kg administered perorally; type: functional
[16] = tested on: Rattus norvegicus; assay: Tested for % rats with stereotypy at the dose of 20 mg/Kg administered perorally; type: functional
[17] = tested on: Rattus norvegicus; assay: Percent reversal of the increase inDOPA levels in the striatum of GBL-treated rats when administered intraperitoneally was determined; type: functional; conditions: ip
[18] = tested on: Rattus norvegicus; assay: Tested for inhibition of dopamine neuronal firing in rat at the dose of 0.25 mg/Kg by intraperitoneal administration; type: functional; conditions: ip
[19] = tested on: Rattus norvegicus; assay: Tested for % rats with stereotypy at the dose of 0.3 mg/Kg subcutaneous administration; type: functional
[20] = tested on: Rattus norvegicus; assay: Tested for locomotor activity in rat by subcutaneous administration; conditions: sc

Compound	IC50 [3] [µM]	ED50 [1] [mg/kg]	ED50 [2] [mg/kg]	Reversal [4] [%]	IC50 [7] [µM]	IC50 [10] [µM]	ED50 [11] [mg/kg]	other results
C1=C(c2ccccc2)CCC(CCN2CCN(c3ccccn3)CC2)C1 (stereo not drawn)		2.1	6.7	50				
C1=C(c2ccccc2)CC[C@@H](CCN2CCN(c3ccccn3)CC2)C1	0.545				0.064	> 6	9.1	inhibition in vivo at 2.5 mg/kg [8]: 58%; Reversal % at 10 mg/kg [4]: 57%; Activity [9]: 60%
C1=C(c2ccccc2)CC[C@H](CCN2CCN(c3ccccn3)CC2)C1	0.704				0.082	> 6		Activity [12]: 0%; Reversal % at 10 mg/kg [4]: 49%; ED50 [13]: 6.1 mg/kg; inhibition in vivo at 2.5 mg/kg [14]: 38%
C1=C(c2ccccc2)CCC(CCN2CCN(c3ccccn3)CC2)C1 (racemic)	0.412				0.088	> 6	6.7	Reversal % at 10 mg/kg [4]: 50%; Activity [15]: 0%; inhibition in vivo at 2.5 mg/kg [14]: 41%
CN1CCC=C2c3nc(N)sc3CCC21 (racemic)	2.92				0.202	> 10	0.8	Activity [16]: 0%; ED50 [17]: 0.7 mg/kg; inhibition in vivo at 2.5 mg/kg [14]: 99%
CN1CCc2cccc3c2[C@H]1Cc1ccc(O)c(O)c1-3 [APOMORPHINE]							> 30	inhibition in vivo at 0.25 mg/kg [18]: 100%; Activity [19]: 100%; ED50 [20]: 0.03 mg/kg; ED50 [17]: 0.3 mg/kg

The next lines start with results.

IC50 [3] [µM]	Compound	ED50 [1] [mg/kg]	ED50 [2] [mg/kg]	Reversal [4] [%]	IC50 [7] [µM]	IC50 [10] [µM]	ED50 [11] [mg/kg]	other results
0.352	C1=C(c2cccs2)CCC(N2CCN(c3ccccn3)CC2)C1 (stereo not drawn)	9.3	> 30					
0.6	C1=C(c2ccccc2)CCC(N2CCN(c3ccccn3)CC2)C1 (stereo not drawn)	1	> 30					
0.128	C1=C(c2ccccn2)CCC(CCN2CCN(c3ccccn3)CC2)C1 (stereo not drawn)			89				ED50 [5]: ~3 mg/kg; ED50 [6]: 0.4 mg/kg
0.436	C1=C(c2cccs2)CCC(CCN2CCN(c3ccccn3)CC2)C1 (stereo not drawn)	8.4	13	46				
~10	C1=C(c2ccccc2)CCC(CN2CCN(c3ccccn3)CC2)C1 (stereo not drawn)	~30						
2.43	C1=C(c2cccs2)CCC(CN2CCN(c3ccccn3)CC2)C1 (stereo not drawn)	> 30						
1.18	C1=C(c2ccccn2)CCC(N2CCN(c3ccccn3)CC2)C1 (stereo not drawn)	0.9	5.8	75				
